Test system: Sprague-Dawley rats
Assay: Glucose lowering following oral administration to the fasted, normal rat
Assay type: in vivo
Conditions: maximum lowering relative to saline controls, 10 mg/kg oral, 18-h fasted rats
Experimental: Compounds were administered by oral gavage to 18-h fasted, Sprague-Dawley rats (250-300 g, n=3/4/group) at a dose of 10 mg/kg. Phosphonic acids (active moieties) were prepared in deionized water, and the solution adjusted to neutrality with sodium hydroxide. Prodrugs were dissolved in polyethylene glycol (mw 400). Blood samples were taken via tail vein nick immediately prior to dosing and at 1 h intervals thereafter. Blood glucose was analyzed by means of a HemoCue glucose analyzer (HemoCue Inc., Mission Viejo, Calif.). The table below indicates the maximum % glucose lowering achieved relative to control animals dosed with saline.

Row | SMILES | inhibition in vivo at 10 mg/kg
1 | CCOC(=O)C(C)(C)NP(=O)(NC(C)(C)C(=O)OCC)c1ccc(-c2nc(N)sc2C(=O)c2cccc(F)c2)o1 [Compound 2.27] | 6%
2 | CCOC(=O)COP(=O)(NC(C)(C)C(=O)OCC)c1ccc(-c2nc(N)sc2C(=O)C2CCC2)o1 (stereo not drawn) [Compound 5.4] | 16%
3 | CCOC(=O)[C@H](C)NP(=O)(N[C@@H](C)C(=O)OCC)c1ccc(-c2nc(N)sc2C(=O)C(C)(CC)CC)o1 [Compound 2.7, 2-amino-5-(2-ethyl-2-methylbutyryl)-4-{[5-(N,N′-((S)-1-ethoxycar-bonyl)ethyl)phosphonamido]furan-2-yl}thiazole] | 10%
4 | CC(C)OC(=O)C(C)(C)NP(=O)(NC(C)(C)C(=O)OC(C)C)c1ccc(-c2nc(N)sc2C(=O)c2cccc(F)c2)o1 [Compound 2.28] | 10%
5 | CCOC(=O)COP(=O)(NC(C)(C)C(=O)OCC)c1ccc(-c2nc(N)sc2C(=O)C(CC)CC)o1 (stereo not drawn) [Compound 5.12] | 38%
6 | CCOC(=O)COP(=O)(N[C@@H](C)C(=O)OC(C)C)c1ccc(-c2nc(N)sc2C(=O)C(C)(C)C)o1 (stereo partly drawn) [Compound 5.6, 2-amino-5-(2,2-dimethylpropionyl)-4-{2-[5-(N-((S)-1-isopropyloxy-carbonyl)ethyl)-O-(ethoxycarbonylmethyl)monophosphonamido]furanyl}-thiazole] | 4%
7 | CCOC(=O)[C@H](C)NP(=O)(N[C@@H](C)C(=O)OCC)c1ccc(-c2nc(N)sc2C(=O)C(CC)CC)o1 [Compound 2.24, 2-amino-5-(2-ethylbutyryl)-4-{[5-(N,N′-((S)-1′-ethyl-oxycarbonyl)ethyl)-phosphonamido]furan-2-yl}thiazole] | 19%
8 | CC(C)(C)C(=O)OCOP(=O)(OCOC(=O)C(C)(C)C)c1ccc(-c2nc(N)sc2C(=O)C(C)(C)C)o1 [Compound 8.4, 2-amino-5-(2,2-dimethylpropionyl)-4-{[5-(O,O′-bis(pivalyloxymethyl)phosphono)]furan-2-yl}thiazole] | 6%
9 | Cc1ccccc1C(=O)c1sc(N)nc1-c1ccc(P(=O)(NC(C)(C)C(=O)OC(C)C)NC(C)(C)C(=O)OC(C)C)o1 [Compound 2.21] | 9%
10 | CCC(C)(CC)C(=O)c1sc(N)nc1-c1ccc(P(=O)(N[C@@H](C)C(=O)OC(C)C)N[C@@H](C)C(=O)OC(C)C)o1 [Compound 2.11, 2-amino-5-(2-ethyl-2-methylbutyryl)-4-{[5-(N,N′-((S)-1-isopropyloxy-carbonyl)-ethyl)phosphonamido]furan-2-yl}thiazole] | 13%
11 | CCOC(=O)[C@H](C)NP(=O)(Oc1ccc2c(c1)OCO2)c1ccc(-c2nc(N)sc2C(=O)C(CC)CC)o1 (stereo partly drawn) [Compound 5.1] | 8%
12 | CCOC(=O)C(C)(C)NP(=O)(O[C@@H](C)C(=O)OC(C)C)c1ccc(-c2nc(N)sc2C(=O)C(C)(C)C)o1 (stereo partly drawn) [Compound 5.10] | 4%
13 | CCC(CC)C(=O)c1sc(N)nc1-c1ccc(P(=O)(NC(C)(C)C(=O)OC(C)C)NC(C)(C)C(=O)OC(C)C)o1 [Compound 2.25] | 10%
14 | CCOC(=O)[C@H](C)NP(=O)(N[C@@H](C)C(=O)OCC)c1ccc(-c2nc(N)sc2C(=O)c2ccc(C)cc2)o1 [Compound 2.16, 2-amino-5-(4-methylbenzoyl)-4-{[5-(N,N′-((S)-1-ethyl-oxycarbonyl)ethyl)-phosphonamido]furan-2-yl}thiazole] | 6%
15 | CCOC(=O)C(C)(C)NP(=O)(NC(C)(C)C(=O)OCC)c1ccc(-c2nc(N)sc2C(=O)C(C)(C)CC)o1 [Compound 2.9] | 24%
16 | CCOC(=O)[C@H](C)OP(=O)(NC(C)(C)C(=O)OCC)c1ccc(-c2nc(N)sc2C(=O)C(C)(C)C)o1 (stereo partly drawn) [Compound 5.9] | 10%
17 | CCC(C)(C)C(=O)c1sc(N)nc1-c1ccc(P(=O)(NCC(=O)OC(C)(C)C)NCC(=O)OC(C)(C)C)o1 [Compound 2.12, 2-amino-5-(2,2-dimethylbutyryl)-4-{[5-(N,N′-tert-butyloxycarbonyl-methyl)phosphonamido]furan-2-yl}thiazole] | 10%
18 | CCOC(=O)COP(=O)(NC(C)(C)C(=O)OC(C)C)c1ccc(-c2nc(N)sc2C(=O)C(C)(C)C)o1 (stereo not drawn) [Compound 5.7] | 25%
19 | CC(C)OC(=O)[C@H](C)NP(=O)(N[C@@H](C)C(=O)OC(C)C)c1ccc(-c2nc(N)sc2C(=O)c2cccc(F)c2)o1 [Compound 2.18, 2-amino-5-(3-fluorobenzoyl)-4-{[5-(N,N′-((S)-1-isopropyl-oxycarbonyl)ethyl)-phosphonamido]furan-2-yl}thiazole] | 13%
20 | CCOC(=O)[C@H](C)NP(=O)(N[C@@H](C)C(=O)OCC)c1ccc(-c2nc(N)sc2C(=O)c2ccccc2C)o1 [Compound 2.14, 2-amino-5-(2-methylbenzoyl)-4-{[5-(N,N′-((S)-1-ethyl-oxycarbonyl)ethyl)-phosphonamido]furan-2-yl}thiazole] | 20%
21 | Cc1ccc(C(=O)c2sc(N)nc2-c2ccc(P(=O)(NC(C)(C)C(=O)OC(C)C)NC(C)(C)C(=O)OC(C)C)o2)cc1 [Compound 2.20] | 6%
22 | CC(=O)SC1CCCCC1OP(=O)(OC1CCCCC1SC(C)=O)c1ccc(-c2nc(N)sc2C(=O)C(C)(C)C)o1 (stereo not drawn) [Compound 6.8] | 1%
23 | CCOC(=O)[C@H](C)NP(=O)(N[C@@H](C)C(=O)OCC)c1ccc(-c2nc(N)sc2C(=O)C(C)(C)CC)o1 [Compound 2.10, 2-amino-5-(2,2-dimethylbutyryl)-4-{[5-(N,N′-((S)-1-ethoxycarbonyl)-ethyl)phosphonamido]furan-2-yl}thiazole] | 12%
24 | Cc1ccccc1C(=O)c1sc(N)nc1-c1ccc(P(=O)(N[C@@H](C)C(=O)OC(C)C)N[C@@H](C)C(=O)OC(C)C)o1 [Compound 2.22, 2-amino-5-(2-methylbenzoyl)-4-{[5-(N,N′-((S)-1-isopropyl-oxycarbonyl)ethyl)-phosphonamido]furan-2-yl}thiazole] | 9%
25 | CCOC(=O)COP(=O)(N[C@@H](C)C(=O)OCC)c1ccc(-c2nc(N)sc2C(=O)C(C)(C)C)o1 (stereo partly drawn) [Compound 5.8, 2-amino-5-(2,2-dimethylpropionyl)-4-{2-[5-(N-((S)-1-ethoxy-carbonyl)ethyl)-O-(ethoxycarbonylmethyl)monophosphonamido]furanyl}-thiazole] | 10%
26 | CCOC(=O)SCCOP(=O)(OCCSC(=O)OCC)c1ccc(-c2nc(N)sc2C(=O)C(C)(C)C)o1 [Compound 6.6] | 4%
27 | CCOC(=O)C(C)(C)NP(=O)(NC(C)(C)C(=O)OCC)c1ccc(-c2nc(N)sc2C(=O)c2ccc(C)cc2)o1 [Compound 2.17] | 10%
28 | CCC(CC)C(=O)c1sc(N)nc1-c1ccc(P(=O)(OCCSC(=O)c2ccccc2)OCCSC(=O)c2ccccc2)o1 [Compound 6.2] | 3%
29 | CCC(CC)C(=O)c1sc(N)nc1-c1ccc(P(=O)(OCOC(=O)C(C)(C)C)OCOC(=O)C(C)(C)C)o1 [Compound 8.2, 2-amino-5-(2-ethylbutyryl)-4-{[5-(O,O′-bis(pivalyloxymethyl)-phosphono)]-furan-2-yl}thiazole] | 10%
30 | CCOC(=O)C(C)(C)NP(=O)(NC(C)(C)C(=O)OCC)c1ccc(-c2nc(N)sc2C(=O)C(CC)CC)o1 [Compound 2.23] | 12%
